From patent US9233920B2, “Process for the preparation of dihydropyrrole derivatives” (Syngenta Participations AG, priority 2010, dated 2016) come the findings set out here.

Format in all cases: in vivo
The subject of experiment [1] is Heliothis virescens. Briefly: Heliothis virescens (tobacco budworm) egg/larval test on artificial diet in 24-well microtiter plate. The note with it: Heliothis virescens eggs 0-24 h old, 4 days incubation, egg mortality, larval mortality, growth regulation. As to the method:
(§1) These examples illustrate the comparative insecticidal and acaricidal properties of compounds A23 and A24. The tests were performed as follows:
Heliothis virescens (Tobacco Budworm):
Eggs (0-24 h old) were placed in 24-well microtiter plate on artificial diet and treated with test solutions at an application rate of 12.5 ppm (concentration in well 18 ppm) by pipetting. After an incubation period of 4 days, samples were checked for egg mortality, larval mortality, and growth regulation.

The subject of experiment [2] is Diabrotica balteata. The experiment in a line: Diabrotica balteata (corn root worm) L2 larvae test on artificial diet in 24-well microtiter plate. The note with it: 5 days incubation, larval mortality and growth regulation. The protocol:
as §1
Diabrotica balteata (Corn Root Worm):
A 24-well microtiter plate (MTP) with artificial diet was treated with test solutions at an application rate of 12.5 ppm (concentration in well 18 ppm) by pipetting. After drying, the MTP's were infested with L2 larvae (6-10 per well). After an incubation period of 5 days, samples were checked for larval mortality and growth regulation.

Experiment [3] has as its system Thrips tabaci. The experiment in a line: Thrips tabaci (onion thrips) sunflower leaf disc spray test. Particulars: Thrips tabaci mixed ages on sunflower leaf discs, 7 days incubation, mortality. As to the method: as §1
Thrips tabaci (Onion Thrips):
[…] After drying, the leaf discs were infested with an […] population of mixed ages. After an incubation period of 7 days, samples were checked for mortality.

`Cc1cc(C2=NC[C@](c3cc(Cl)cc(Cl)c3)(C(F)(F)F)C2)ccc1C(=O)NC1CS(=O)(=O)C1` [Compound A24, 4-[(3S)-3-(3,5-dichlorophenyl)-3-(trifluoromethyl)-2,4-dihydropyrrol-5-yl]-N-(1,1-dioxothietan-3-yl)-2-methyl-benzamide]: the “% Control at 12.5 ppm” value was 50% in experiment [1], 0% in experiment [2] and 40% in experiment [3]. The “% Control at 200 ppm” value in experiment [1], in experiment [2] and in experiment [3] was 100% throughout.

Regarding `Cc1cc(C2=NC[C@@](c3cc(Cl)cc(Cl)c3)(C(F)(F)F)C2)ccc1C(=O)NC1CS(=O)(=O)C1` [Compound A23, 4-[(3R)-3-(3,5-dichlorophenyl)-3-(trifluoromethyl)-2,4-dihydropyrrol-5-yl]-N-(1,1-dioxothietan-3-yl)-2-methyl-benzamide], the “% Control at 12.5 ppm” value in experiment [1], in experiment [2] and in experiment [3] was 100% each time. The “% Control at 200 ppm” value in experiment [1], in experiment [2] and in experiment [3] was 100% throughout.
